In US20260231994A1, “TASTE-ENHANCING COMPOSITION, METHOD FOR PRODUCING SAME, FOOD PRODUCT, AND METHOD FOR ENHANCING TASTE OF FOOD PRODUCT” (HOUSE FOODS GROUP INC., priority 2023, published 2026):

Columns and labels:
Format in all cases: in vivo
[1] = Experiment 1 sensory evaluation of “boosting of flavor” (cyclic dipeptides, coriander); settings: for “boosting of flavor” Average: cyclic dipeptide aqueous solution (concentration as in heat-treated coriander) at final 0.2% (w/w) in reduced-sodium curry roux dispersion, score 1-5; for “boosting of flavor” Evaluation: cyclic dipeptide aqueous solution at final 0.2% (w/w) in reduced-sodium curry roux dispersion, class of average score; for “boosting of flavor” in words: added to reduced-sodium curry roux dispersion, compared with no addition, unheated coriander or common curry roux
Description: Flour roux was prepared by putting 20 g of flour and 30 g of beef tallow in a pan, then heating with stirring at 120° C. To this flour roux were added 10 g of sodium chloride, 10 g of sugar, 10 g of cornstarch, 5 g of curry powder and 15 g of other seasoning ingredients (vegetable and fruit extracts, yeast extract and seafood extract), and after heat-treatment to 105° C., the mixture was cooled and solidified, to form a block of common curry roux.
The sodium chloride equivalent per 100 g of this curry roux was 10.6 g.
Reduced-sodium curry roux was prepared according to the same procedure, except that the amount of sodium chloride was reduced to 7 g from the amount in the common curry roux in (1).
The sodium chloride equivalent per 100 g of this reduced-sodium curry roux was 7.7 g.
Out of the cyclic dipeptides included in the heat-treated coriander prepared in 1.1. described above, which were confirmed to be increased in 1.2. above, an aqueous solution of the respective 14 cyclic dipeptides shown in the table described below was prepared. The concentration of the cyclic dipeptide in each aqueous solution was set to be equal to its concentration in the heat-treated coriander prepared in 1.1. described above, which was estimated from the ratio of the peak area of the cyclic dipeptide to the peak area of the internal standard (47 μg/g L-lysine-^13C6 monohydrochloride) confirmed in 1.2. described above.
Two dispersions of 44 g of the reduced-sodium curry roux in (2) dispersed in 300 g of hot water were prepared.
To one of them was added the heat-treated coriander or the powdered unheated coriander prepared in 1.1. described above, or the cyclic dipeptide aqueous solution (corresponding to the heat-treated coriander) prepared in (3) above, so that the final concentration was 0.2% (w/w), and a sensory evaluation was carried out.
Forty-four grams of the common curry roux in (1) was dispersed in 300 g of hot water.
The dispersion of reduced-sodium curry roux dispersed in hot water and the dispersion of common curry roux dispersed in hot water were used as comparative controls, and the strength of the flavor was evaluated by four evaluators on the basis of the following evaluation criteria from the viewpoint of “boosting of flavor.” The term “boosting of flavor” in this experiment is an effect concerted by the combination of sodium chloride and other foodstuffs in curry roux, and is an aspect of “saltiness.” Thus, the “flavor” in this experiment can be also expressed as “saltiness.”
The average of the evaluated scores was defined as “F” when it was 1.0 or lower, “C” when it was 1.1 or higher and 1.9 or lower, “B” when it was 2.0 or higher and 2.5 or lower, “A” when it was 2.6 or higher and 2.9 or lower, and “AA” when it was 3.0 or higher.

[2] = Experiment 6 sensory evaluation of cyclic dipeptides, “top sharp saltiness”
Procedure, shortened: (§1)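 Reduced-sodium curry roux (44 g in 300 g hot water) was spiked with cyclic dipeptide solutions matching heat-treated coriander or paprika levels, at 0.5% or 1.0% (w/w) final. Three evaluators scored each sample against unspiked reduced-sodium and common roux. Mean scores were graded F to AA.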

[3] = Experiment 6 sensory evaluation of cyclic dipeptides, “middle fullness (enhanced thickness)”
Procedure, shortened: as §1

[4] = Experiment 6 sensory evaluation of cyclic dipeptides, “boosting of last flavor (aftertaste)”
Procedure, shortened: as §1

[5] = Additive amount paprika 0.5% (heat-treated paprika equivalent aqueous solution, final 0.5% (w/w)), reduced-sodium curry roux
[6] = Additive amount paprika 0.5%, reduced-sodium curry roux
[7] = heat-treated paprika equivalent aqueous solution of cyclic dipeptide, final 1.0% (w/w) in reduced-sodium curry roux dispersion
[8] = heat-treated paprika equivalent aqueous solution of cyclic dipeptide, final 1.0% (w/w) in reduced-sodium curry roux dispersion, 3 evaluators
[9] = Additive amount coriander 0.5% (heat-treated coriander equivalent aqueous solution, final 0.5% (w/w)), reduced-sodium curry roux
[10] = Additive amount coriander 0.5%, reduced-sodium curry roux
[11] = heat-treated coriander equivalent aqueous solution of cyclic dipeptide, final 1.0% (w/w) in reduced-sodium curry roux dispersion
[12] = heat-treated coriander equivalent aqueous solution of cyclic dipeptide, final 1.0% (w/w) in reduced-sodium curry roux dispersion, 3 evaluators

| Substance | “boosting of flavor” Average [1] [points] | “boosting of flavor” Evaluation [1] | Top sharp saltiness Average [2, 5] [points] | Top sharp saltiness Evaluation [2, 6] | Top sharp saltiness Evaluation [2, 7] | Top sharp saltiness Average [2, 8] [points] | Middle fullness Average [3, 6] [points] | Middle fullness Evaluation [3, 6] | Middle fullness Evaluation [3, 7] | Middle fullness Average [3, 8] [points] | Bosting of last flavor Average [4, 6] [points] | Bosting of last flavor Evaluation [4, 6] | Bosting of last flavor Evaluation [4, 7] | Bosting of last flavor Average [4, 8] [points] | “boosting of flavor” in words [1] | also measured |
| --- | --- | --- | --- | --- | --- | --- | --- | --- | --- | --- | --- | --- | --- | --- | --- | --- |
| cyclic (Ala-Pro) [Coriander ID 23] | 2.0 | B (“B” when it was 2.0 or higher and 2.5 or lower) | 2.3 | B (“B” when it was 2.0 or higher and 2.5 or lower) | A (“A” when it was 2.6 or higher and 2.9 or lower) | 2.7 | 2.2 | B (“B” when it was 2.0 or higher and 2.5 or lower) | AA (“AA” when it was 3.0 or higher) | 3.0 | 2.2 | B (“B” when it was 2.0 or higher and 2.5 or lower) | AA (“AA” when it was 3.0 or higher) | 3.0 | – | – |
| cyclic (Thr-Pro) [Coriander ID 14] | 3.3 | AA (“AA” when it was 3.0 or higher) | 2.2 | B (“B” when it was 2.0 or higher and 2.5 or lower) | B (“B” when it was 2.0 or higher and 2.5 or lower) | 2.0 | 2.0 | B (“B” when it was 2.0 or higher and 2.5 or lower) | B (“B” when it was 2.0 or higher and 2.5 or lower) | 2.5 | 2.2 | B (“B” when it was 2.0 or higher and 2.5 or lower) | B (“B” when it was 2.0 or higher and 2.5 or lower) | 2.5 | comparable flavor to that of the dispersion of common curry roux | – |
| cyclic (Phe-Pro) [Coriander ID 40] | 2.8 | A (“A” when it was 2.6 or higher and 2.9 or lower) | 2.5 | B (“B” when it was 2.0 or higher and 2.5 or lower) | A (“A” when it was 2.6 or higher and 2.9 or lower) | 2.7 | 2.3 | B (“B” when it was 2.0 or higher and 2.5 or lower) | AA (“AA” when it was 3.0 or higher) | 3.2 | 2.3 | B (“B” when it was 2.0 or higher and 2.5 or lower) | AA (“AA” when it was 3.0 or higher) | 3.0 | – | – |
| cyclic (Pro-Val) [Coriander ID 29] | 3.0 | AA (“AA” when it was 3.0 or higher) | 2.5 | B (“B” when it was 2.0 or higher and 2.5 or lower) | B (“B” when it was 2.0 or higher and 2.5 or lower) | 2.2 | 2.3 | B (“B” when it was 2.0 or higher and 2.5 or lower) | B (“B” when it was 2.0 or higher and 2.5 or lower) | 2.3 | 2.2 | B (“B” when it was 2.0 or higher and 2.5 or lower) | B (“B” when it was 2.0 or higher and 2.5 or lower) | 2.3 | comparable flavor to that of the dispersion of common curry roux | – |
| cyclic (Leu/Ile-Val) [Coriander ID 42] | 2.0 | B (“B” when it was 2.0 or higher and 2.5 or lower) | – | – | – | – | – | – | – | – | – | – | – | – | – | Top sharp saltiness Average [2, 9]: 2.5 points; Top sharp saltiness Evaluation [2, 10]: B (“B” when it was 2.0 or higher and 2.5 or lower); Top sharp saltiness Evaluation [2, 11]: B (“B” when it was 2.0 or higher and 2.5 or lower); Top sharp saltiness Average [2, 12]: 2.0 points; Middle fullness Average [3, 10]: 2.8 points; Middle fullness Evaluation [3, 10]: A (“A” when it was 2.6 or higher and 2.9 or lower); Middle fullness Evaluation [3, 11]: A (“A” when it was 2.6 or higher and 2.9 or lower); Middle fullness Average [3, 12]: 2.7 points; Bosting of last flavor Average [4, 10]: 3.0 points; Bosting of last flavor Evaluation [4, 10]: AA (“AA” when it was 3.0 or higher); Bosting of last flavor Evaluation [4, 11]: A (“A” when it was 2.6 or higher and 2.9 or lower); Bosting of last flavor Average [4, 12]: 2.7 points |
| cyclic (Gly-Val) [Coriander ID 21] | 2.3 | B (“B” when it was 2.0 or higher and 2.5 or lower) | 2.3 | B (“B” when it was 2.0 or higher and 2.5 or lower) | C (“C” when it was 1.1 or higher and 1.9 or lower) | 1.7 | 2.3 | B (“B” when it was 2.0 or higher and 2.5 or lower) | B (“B” when it was 2.0 or higher and 2.5 or lower) | 2.0 | 2.5 | B (“B” when it was 2.0 or higher and 2.5 or lower) | B (“B” when it was 2.0 or higher and 2.5 or lower) | 2.2 | – | – |
| cyclic (Phe-Ala) [Coriander ID 33] | 3.0 | AA (“AA” when it was 3.0 or higher) | – | – | – | – | – | – | – | – | – | – | – | – | comparable flavor to that of the dispersion of common curry roux | Top sharp saltiness Average [2, 9]: 2.3 points; Top sharp saltiness Evaluation [2, 10]: B (“B” when it was 2.0 or higher and 2.5 or lower); Top sharp saltiness Evaluation [2, 11]: B (“B” when it was 2.0 or higher and 2.5 or lower); Top sharp saltiness Average [2, 12]: 2.0 points; Middle fullness Average [3, 10]: 2.5 points; Middle fullness Evaluation [3, 10]: B (“B” when it was 2.0 or higher and 2.5 or lower); Middle fullness Evaluation [3, 11]: B (“B” when it was 2.0 or higher and 2.5 or lower); Middle fullness Average [3, 12]: 2.5 points; Bosting of last flavor Average [4, 10]: 2.5 points; Bosting of last flavor Evaluation [4, 10]: B (“B” when it was 2.0 or higher and 2.5 or lower); Bosting of last flavor Evaluation [4, 11]: B (“B” when it was 2.0 or higher and 2.5 or lower); Bosting of last flavor Average [4, 12]: 2.5 points |
